The data set concerns CCRIS mutagenicity, Ames/micronucleus/aberration tests. In words: CCRIS mutagenicity studies. The settings on record: Test System: AMES SALMONELLA TYPHIMURIUM
[1] abbreviates: Strain/Indicator: TA98, Metabolic Activation: NONE, Method: STANDARD PLATE.
The mark [2] stands for this setting: Strain/Indicator: TA98, Metabolic Activation: RAT, LIVER, S-9, AROCLOR 1254, Method: STANDARD PLATE.
The mark [3] stands for this setting: Strain/Indicator: TA100, Metabolic Activation: NONE, Method: STANDARD PLATE.

Molecules are shown by their SMILES. Active and inactive are the calls of the source. No rule for the calls is given here.

Regarding `Cn1c(N)nc2c3ccc(=O)[nH]c3ccc21`, the mutagenic call reads like this: (Strain/Indicator: TA98, Metabolic Activation: NONE, Method: PREINCUBATION) “active; positive”; under setting [1], “active; positive”; (Strain/Indicator: TA98, Metabolic Activation: RAT, LIVER, S-9, AROCLOR 1254 (0.5-3 MG/ML), Method: PREINCUBATION) “active; positive”; under setting [2], “active; positive”.

In the case of `ONc1ccc(Oc2ccccc2)cc1`, the mutagenic call is “active; positive” under setting [1] and “active; positive” under setting [3].

Turning to `O=S(=O)(Nc1cccc(Cl)c1)c1cccc2cccnc12`, the mutagenic call under setting [1] is “inactive; negative”; the mutagenic call under setting [2] is “inactive; negative”; the mutagenic call under setting [3] is “inactive; negative”; the mutagenic call (Strain/Indicator: TA100, Metabolic Activation: RAT, LIVER, S-9, AROCLOR 1254, Method: STANDARD PLATE) is “inactive; negative”; the mutagenic call (Strain/Indicator: TA1535, Metabolic Activation: NONE, Method: STANDARD PLATE) is “inactive; negative”; the mutagenic call (Strain/Indicator: TA1535, Metabolic Activation: RAT, LIVER, S-9, AROCLOR 1254, Method: STANDARD PLATE) was “inactive; negative”. Also, the mutagenic call runs as follows: (Strain/Indicator: TA1537, Metabolic Activation: NONE, Method: STANDARD PLATE) “inactive; negative”; (Strain/Indicator: TA1537, Metabolic Activation: RAT, LIVER, S-9, AROCLOR 1254, Method: STANDARD PLATE) “inactive; negative”.

Source of the values: PubChem BioAssay AID1259407 (Chemical Carcinogenesis Research Information System (CCRIS), 2018).
